Series [1] deals with TNF-α. In words: Mouse RV1B infection with fluticasone propionate: TNF-α in BAL by ELISA. Format: in vivo, BALB/c mice. Conditions: FP treatment. For orientation: An ELISA detects its analyte on a solid surface through an enzyme-linked reagent.
The format of series [2] is in vivo, BALB/c mice. The note with it: 2 pmol INNA-006 day −7 or day −7 & −1; FP 1 hour before RV1B. The source says:
Each group contained 8 mice.

Series [3] has as its system Rhinovirus serotype 1B (RV1B). In words: Mouse RV1B infection with fluticasone propionate: lung viral RNA by qPCR. The note with it: FP 1 hour before RV1B in Saline control mice. Background: In qPCR the cycle at which signal appears reflects the starting amount.
Details of series [4]: species or system BALB/c mice. Conditions: mouse, in vivo. An excerpt: Each group contained 5 mice.
Series [5] has as its system BAL inflammatory cells. As to the kind of experiment: Mouse RV1B infection model: BAL cell analysis.
Description: Following sacrifice, mice were tracheally cannulated and 1 ml of Hanks buffered saline solution (Hyclone™, GE Life Sciences) flushed through the airways, 3-5 times. BAL cells were pelleted by centrifugation and supernatant was collected and stored at −80° C. for ELISAs. The pelleted cells were red blood cells lysed and the remaining cells were counted on a heamocytometer by trypan blue exclusion. Cell suspensions were then cytocentrifuged onto slides and fixed and stained with Diff Quick (POCD) solutions as per manufacturer's recommendations. A minimum of 200 total cells were counted per slide and numbers of neutrophils, lymphocytes, and macrophages were determined.
Series [6] deals with TNFα. In words: Mouse RV1B infection model: TNFα in BAL by ELISA.
Description: (§1) Remaining lung lobes we snap frozen in liquid nitrogen, homogenised in 600 μl PBS containing protease inhibitors (Roche) by TissueLyser II run twice at 30 Hz for 4 minutes. Cell debris was pelleted by centrifugation, samples were diluted 1:2 with PBS and stored at −80° C. BAL fluid was then analysed for production of KC/IL-8 (CXCL1) and TNF-α by Duoset ELISA (R&D Systems) as per manufacturer's instructions.
Series [7] deals with CXCL1. In words: Mouse RV1B infection model: CXCL1 in BAL by ELISA.
Description: as §1
For series [8], the system named is Rhinovirus serotype 1B (RV1B). In words: Mouse RV1B infection model: lung viral RNA by qPCR. Conditions: for reduction of RV infection (lung RV copy number): Study 1E: 10 pmol day −7; for RV copy number in lung: Study 1E: every dose 1-10 pmol day −7; for lung viral load: day +1.
Series [9] deals with TLR-2 (Homo sapiens, UniProt O60603). In words: NF-κB luciferase reporter in HEK293T cells transfected with human TLR2. Format: cell-based. Details: expressed in transfected cells; host or cells: HEK293T. Conditions: dose range 12.2 pM to 3.125 pM, FIG. 20. The method, then:
Comparison of the abilities of various compounds to stimulate luciferase activity in an NF-κB cell-based reporter system was determined. Compounds tested include INNA-006 (or compound (1)); INNA-013 (or compound (4)); INNA-014 (or compound (3)); INNA-015 (or compound (2)); INNA-010; INNA-011 (or compound (5)); INNA-012 (or compound (6)); and INNA-009. HEK293T cells, transiently co-transfected with a human TLR2 plasmid and a luciferase-NF-κB plasmid reporter system, were exposed to various dilutions of each compound. Successful receptor binding and subsequent signal transduction events were determined by measuring the luminescence due to luciferase activity (results shown in FIG. 19—left to right columns for each concentration are in the following order INNA-006 (or compound (1)); INNA-013 (or compound (4)); INNA-014 (or compound (3)); INNA-015 (or compound (2)); INNA-010; INNA-011 (or compound (5)); INNA-012 (or compound (6)); and INNA-009.
Comparison of the in vitro TLR2 agonistic activity of Pam3Cys-Ser-PEG3000 and INNA-006: HEK293T cells, transiently co-transfected with a human TLR2 plasmid and a luciferase-NF-κB plasmid reporter system, were exposed to various dilutions of INNA-006 or Pam3Cys-Ser-PEG3000.
Successful receptor binding and subsequent signal transduction events were determined by measuring the luminescence due to luciferase activity (FIG. 20).

[10] abbreviates: Study 1G: lowest doses (2 pmole and 1 pmole) day +1, listed as Peg-SS-Pam2Cys.

“Also recorded” adds a separate entry of the source. Read-outs that look alike come from different tables or passages of the source. No end group written: not given here.

TLR-2, sequence (O60603 21-784): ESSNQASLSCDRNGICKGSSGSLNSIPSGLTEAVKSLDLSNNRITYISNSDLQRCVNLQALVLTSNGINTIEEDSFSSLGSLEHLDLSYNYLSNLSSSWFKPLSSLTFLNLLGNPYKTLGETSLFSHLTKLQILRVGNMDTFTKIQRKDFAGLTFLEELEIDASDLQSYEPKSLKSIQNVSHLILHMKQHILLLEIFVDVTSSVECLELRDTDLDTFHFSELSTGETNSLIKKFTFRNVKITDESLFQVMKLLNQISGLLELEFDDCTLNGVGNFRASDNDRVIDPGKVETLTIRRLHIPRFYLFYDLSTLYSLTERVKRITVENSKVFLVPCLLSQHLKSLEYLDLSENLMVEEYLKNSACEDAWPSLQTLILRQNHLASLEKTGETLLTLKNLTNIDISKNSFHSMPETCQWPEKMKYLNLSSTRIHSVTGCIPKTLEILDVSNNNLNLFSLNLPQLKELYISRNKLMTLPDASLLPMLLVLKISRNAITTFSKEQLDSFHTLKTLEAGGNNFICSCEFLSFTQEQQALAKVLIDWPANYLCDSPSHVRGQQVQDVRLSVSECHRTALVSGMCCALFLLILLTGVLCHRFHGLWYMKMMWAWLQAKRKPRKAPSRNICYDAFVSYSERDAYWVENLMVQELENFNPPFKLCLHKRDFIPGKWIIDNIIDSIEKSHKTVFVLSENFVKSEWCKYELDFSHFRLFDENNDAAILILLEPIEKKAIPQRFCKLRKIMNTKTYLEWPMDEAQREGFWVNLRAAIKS
TLR-2, sequence (Q15399 25-786 partner): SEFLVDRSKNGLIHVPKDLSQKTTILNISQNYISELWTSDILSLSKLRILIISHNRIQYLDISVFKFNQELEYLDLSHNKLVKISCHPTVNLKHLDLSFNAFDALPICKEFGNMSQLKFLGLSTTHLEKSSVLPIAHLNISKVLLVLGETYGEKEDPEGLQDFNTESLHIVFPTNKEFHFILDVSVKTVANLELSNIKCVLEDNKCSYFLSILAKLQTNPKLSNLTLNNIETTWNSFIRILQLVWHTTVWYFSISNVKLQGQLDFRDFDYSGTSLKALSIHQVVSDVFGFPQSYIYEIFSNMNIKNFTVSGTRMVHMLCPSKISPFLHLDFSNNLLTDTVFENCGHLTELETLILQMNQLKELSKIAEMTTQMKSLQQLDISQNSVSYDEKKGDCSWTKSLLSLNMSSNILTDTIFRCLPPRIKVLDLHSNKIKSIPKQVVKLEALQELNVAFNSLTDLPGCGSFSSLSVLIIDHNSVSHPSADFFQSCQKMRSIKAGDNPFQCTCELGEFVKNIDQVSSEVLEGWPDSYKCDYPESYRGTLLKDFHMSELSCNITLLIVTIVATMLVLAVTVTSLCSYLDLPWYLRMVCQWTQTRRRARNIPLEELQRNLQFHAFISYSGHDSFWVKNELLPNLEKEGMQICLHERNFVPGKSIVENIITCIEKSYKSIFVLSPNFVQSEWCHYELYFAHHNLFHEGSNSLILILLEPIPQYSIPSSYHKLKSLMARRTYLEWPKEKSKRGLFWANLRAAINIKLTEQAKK

In the case of `CCC(=O)O[C@]1(C(=O)SCF)[C@H](C)C[C@H]2[C@@H]3C[C@H](F)C4=CC(=O)C=C[C@]4(C)[C@@]3(F)[C@@H](O)C[C@@]21C` [FP, fluticasone propionate, reference compound], the “TNF-α production stimulated by INNA-006” value in series [1] is given as “reduced TNF-α production stimulated by INNA-006”. Also, the weight loss result in series [2] was “no significant weight loss”. Besides, in series [3], the viral lung load entry was “Viral lung load was increased; also recorded: increased viral lung load in Saline control mice only”.
As to Pam2Cys-SS-PEG [INNA-003], in series [4], the weight loss entry is “weight loss at the higher doses”. For the same molecule, the “weight loss after second dose” value in [4] is given as “no weight loss observed”. Further, the “RV-induced BAL neutrophilic inflammation” value in series [5] (Study 1E: day −7, day 2 p.i.) is given as “significantly reduced neutrophilic inflammation”. Moreover, the “inflammatory potency, Peg-SS-Pam2Cys versus Peg-S-Pam2Cys” value in series [5] (Study 1F) is listed as “Peg-SS-Pam2Cys more inflammatory”. Besides, the BAL neutrophils result is given as “only significantly increased in mice with Peg-SS-Pam2Cys treatment 1 day prior to RV or mock infection” in series [5] (Study 1F: 2 pmol, 1 day prior to RV or mock infection) and “drastically increases neutrophil numbers in BAL; also recorded: increasing neutrophil recruitment” in [5] (Study 1G: day +1 treatment, listed as Peg-SS-Pam2Cys). Also, the BAL lymphocytes entry in series [5] (Study 1F: 2 pmol, day −7, day −1 or both) is listed as “induced by Peg-SS-Pam2Cys at all treatment times (except day −7 treatment with RV1B infection)”; in series [5] (Study 1G: day +1 treatment) it was “no changes to lymphocyte numbers”. Besides, the “total BAL leukocytes in RV1B infected mice” value in series [5] (Study 1F: 2 pmol, vs Saline RV) is on record as “did not induce significantly higher leukocyte recruitment”. Further, the “total BAL leukocytes in mock infected mice” value in series [5] (Study 1F: 2 pmol, vs Saline mock) is on record as “Total leukocytes were increased”. In series [5] (Study 1F: three days after dosing (d-1 groups)), the “neutrophilic response in uninfected mice” value is on record as “there was a neutrophilic response to Peg-SS-Pam2Cys”. Besides, the BAL macrophages result in series [5] (Study 1G: day +1 treatment) is on record as “significantly reducing macrophage numbers”. For the same molecule, the “total BAL leucocyte numbers” value in series [5] (Study 1G: day +1 treatment) is “no significant differences”. Besides, the “TNF-α in BAL” value in series [6] (Study 1E: day −7, listed as Peg-SS-Pam2Cys) is given as “not increased by any of the compounds; also recorded: lack of induction of TNFα”; in series [6] (Study 1F: 2 pmol, all groups) it was “did not induce TNF-α in any of the groups”; in series [6] (Study 1G: 10-1 pmol day +1), “dose dependent upon drug treatment”; in series [6] (setting [10]), “not increased by the lowest doses; also recorded: no significant increase in KC or TNFα”. The “CXCL1 in BAL” value in [7] (Study 1E: every dose (1-10 pmol) day −7) is “effectively reduced CXCL1 levels”; in series [7] (Study 1F: 2 pmol day −1, RV1B, listed as Peg-SS-Pam2Cys), “CXCL1 production was only increased; also recorded: significantly increased in mice treated one day prior to infection”; in [7] (Study 1G: 10-1 pmol day +1), “dose dependent upon drug treatment”. Also, the “CXCL1 / lung inflammation after day −1 dose with prior day −7 dose” value in [7] (Study 1F: 2 pmol day −7 and day −1, listed as Peg-SS-Pam2Cys) is given as “protected from lung inflammation; also recorded: completely abolished”. In addition, in [7] (setting [10]), the “CXCL1 (KC) in BAL” value is given as “not increased by the lowest doses; also recorded: no significant increase in KC or TNFα”. For the same molecule, in series [8], the “reduction of RV infection (lung RV copy number)” value came out at 84.82%. Also, the “anti-viral efficacy relative to Pam2CysSK4” value in series [8] (Study 1E: 10 pmol dose day −7, listed as Peg-SS-Pam2Cys) is on record as “better anti-viral efficacy compared to Pam2CysSK4”. The “RV copy number in lung” value in series [8] (day 2 p.i.) was “significant reduction in RV infection”. In series [8] (Study 1F: single treatment at day −7), the “reduced viral RNA” value was determined as 70%. In addition, in series [8] (Study 1F: treatment at both days −7 and −1), the “reduction in viral RNA” value is recorded as “approx. 90%”. Further, the “RV copy numbers in lung” value in series [8] (Study 1G: 10, 5, 2, 1 pmol 1 day post-infection, day 2 p.i.) was “reduces RV1B copy numbers in the lung”. The lung viral load result in [8] (Study 1G: doses 5 pmole per mouse and lower) is listed as “significant reduction in lung viral load”; in [8] (Study 1G: highest dose 10 pmole per mouse), “less effective”.
For the molecule “Pam2Cys-Ser-Lys-Lys-Lys-Lys (C(dipalmitoyl‑S‑glyceryl)SKKKK) [INNA-005, reference compound]”, the “TNF-α in BAL” value in series [6] (Study 1E: day −7) is on record as “not increased by any of the compounds”. Further, the “CXCL1 in BAL” value in [7] (Study 1E: 10 pmol and 5 pmol dose day −7) is on record as “effectively reduced CXCL1 levels”. In [8] (Study 1E, day −7 (discussion)), the “reduction in lung viral load” value worked out at 50%. For the same molecule, in series [8], the “reduction of RV infection (lung RV copy number)” value was 58%. Besides, the “RV copy number in lung” value in [8] (day 2 p.i.) was “significant reduction in RV infection”.
Regarding Pam3Cys-Ser-PEG3000, the “ability to signal NF-κB (luciferase), versus INNA-006” value in series [9] is reported as “inferior to INNA-006”.

The record behind these values is patent US20200147028A1, “TREATMENT OF RESPIRATORY INFECTION WITH A TLR2 AGONIST” (Ena Therapeutics Pty Ltd, priority 2017, published 2020).
